Test systems include SN12C; NCI-H23; SK-MEL-28; Malme-3M; NCI/ADR-RES; 786-0; U-251; A549; NCI-H460; OVCAR-8; SNB-19; SF-539; UACC-257; CAKI-1; IGROV-1; SNB-75; EKVX; UACC-62; HOP-62; HT-29.
What all share (experiment): NCI-60 cell line screen, 48 h

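The compound was tested at five concentrations on cells cultured in 96-well plates, with a 48-hour exposure period. GI50: concentration for 50% inhibition of growth.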 Activity calls are given as the source filed them. No stated cut-off is given here; in the data, active = GI50 up to about 1.1 µM and inactive = higher.

For `Cn1c2c3ccc(Cl)cc3nc-2c(Cl)c2ccccc21`, the GI50 in the assay with SN12C is 14.4 µM (inactive); in the assay on NCI-H23, 13.4 µM (inactive); with SK-MEL-28, 17.7 µM (inactive); with Malme-3M it was 18.2 µM (inactive); with NCI/ADR-RES, 24.8 µM (inactive); with 786-0, 15.5 µM (inactive). The GI50 was 10.9 µM (inactive) in the assay with U-251; 27.3 µM (inactive) in the assay on A549; 12.7 µM (inactive) in the assay on NCI-H460; 20.2 µM (inactive) in the assay with OVCAR-8; 22.9 µM (inactive) with SNB-19; 19.9 µM (inactive) with SF-539. Besides, the GI50 with UACC-257 was 17.5 µM (inactive); with CAKI-1, 17.3 µM (inactive); with IGROV-1, 16.6 µM (inactive); in the assay on SNB-75 it was 17.1 µM (inactive); in the assay with EKVX, 22.9 µM (inactive); with UACC-62 it was 20.4 µM (inactive). For the same molecule, the GI50 in the assay on HOP-62 is 16.4 µM (inactive); in the assay with HT-29, 15.3 µM (inactive).

Regarding `CCSC(=O)N1c2ccc(OC)cc2C=CC1C#N` (stereo not given), the GI50 in the assay on SN12C is 0.00782 µM (active); in the assay on NCI-H23, 0.00509 µM (active); in the assay with SK-MEL-28, 0.308 µM (active); in the assay with Malme-3M, 0.1 µM (active); in the assay on NCI/ADR-RES, 0.00131 µM (active); in the assay on 786-0, 0.00344 µM (active). The GI50 was 0.00403 µM (active) in the assay on U-251; 0.00565 µM (active) in the assay with A549; 0.00423 µM (active) in the assay on NCI-H460; 0.00569 µM (active) with OVCAR-8; 0.0176 µM (active) in the assay on SNB-19; 0.00177 µM (active) in the assay on SF-539. For the same molecule, the GI50 in the assay with UACC-257 is < 0.01 µM (active); with CAKI-1, < 0.01 µM (active); in the assay on IGROV-1, 0.00373 µM (active); in the assay on SNB-75 it was 0.00417 µM (active); in the assay on EKVX, 0.392 µM (active); in the assay with UACC-62 it was 0.00877 µM (active). For the same molecule, the GI50 was 0.00841 µM (active) in the assay on HOP-62 and 0.00139 µM (active) in the assay with HT-29.

As to `[N-]=[N+]=NC[C@H]1OCO[C@H](CN=[N+]=[N-])[C@H]2OCCOCCOc3ccccc3OCCOCCO[C@@H]21`, the GI50 in the assay with SN12C, with NCI-H23, in the assay with SK-MEL-28, in the assay with Malme-3M, in the assay on NCI/ADR-RES and in the assay on 786-0 was > 100 µM (inactive) throughout. The GI50 in the assay with U-251, with A549, with NCI-H460, with OVCAR-8, with SNB-19 and in the assay on SF-539 was > 100 µM (inactive) in each case. Further, the GI50 is > 100 µM (inactive) in the assay on UACC-257; > 100 µM (inactive) in the assay with CAKI-1; > 100 µM (inactive) with IGROV-1; 76.4 µM (inactive) in the assay on SNB-75; > 100 µM (inactive) in the assay on EKVX; > 100 µM (inactive) in the assay on UACC-62. For the same molecule, the GI50 in the assay on HOP-62 and with HT-29 was > 100 µM (inactive) throughout.

As for `Cn1c(SCc2c[nH]c3ccccc23)nnc1-c1ccc(Cl)cc1Cl`, the GI50 with SN12C is 17.1 µM (inactive); in the assay with NCI-H23, 23.8 µM (inactive); in the assay with SK-MEL-28 it was 36.2 µM (inactive); in the assay on Malme-3M it was 18.9 µM (inactive); in the assay on NCI/ADR-RES it was 6.07 µM (inactive); with 786-0 it was 24.4 µM (inactive). Further, the GI50 is 15.1 µM (inactive) with U-251; 17.5 µM (inactive) with A549; 12.5 µM (inactive) in the assay with NCI-H460; 21.2 µM (inactive) in the assay on OVCAR-8; 16.8 µM (inactive) with SNB-19; 3.14 µM (inactive) in the assay with SF-539. The GI50 in the assay with UACC-257 is 19.9 µM (inactive); in the assay on CAKI-1, 20 µM (inactive); with IGROV-1, 17.4 µM (inactive); in the assay on SNB-75 it was 1.29 µM (inactive); with EKVX it was 15.3 µM (inactive); in the assay with UACC-62, 12 µM (inactive). The GI50 is 6.1 µM (inactive) with HOP-62 and 17.3 µM (inactive) in the assay with HT-29.

(Values after ChEMBL document CHEMBL1201862, “PubChem BioAssay data set” (2004).)
